Reference: ChEMBL document CHEMBL1201862, “PubChem BioAssay data set” (2004)
Activity calls are given as the source filed them.

What was measured:
[1] = target: Adenosylmethionine-8-amino-7-oxononanoate aminotransferase (Mycobacterium tuberculosis, UniProt P9WQ81); assay: Mycobacterium tuberculosis BioA enzyme inhibitor Measured in Biochemical System Using Plate Reader - 2163-02_Inhibitor_Dose_CherryPick_Activity.; format: functional, Mycobacterium tuberculosis UT205
[2] = HEK293 cell viability, dose response, counter-screen for EBV LMP1 inhibitor project, dry powder, set 2 (AID 624374); format: functional
[3] = THP-1 cell cytotoxicity, dose response, cytotoxicity control for non-replicating M. tuberculosis project (AID 489025); format: functional
[4] = Vero E6 cell cytotoxicity, dose response, cytotoxicity control for non-replicating M. tuberculosis project, secondary assay (AID 492998); format: functional, VeroE6; settings: Vero C1008
cells = format: functional
INS1 = assay: beta cell apoptosis inhibitors, cytokine rescue, dose response, luminescence, retest (AID 449756); format: functional, cell-based; settings: Rattus norvegicus;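 also: cell death triggered by IL-1 beta plus TNF-alpha plus IFN-gamma mixture; protective hits raise ATP signal compared with cytokine alone wells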
[5] = Shn3 3'UTR reporter inhibitors, dose response, cell-based, Clone20 osteoblasts, firefly luciferase, cherry-picked (AID 624132); format: functional;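 also: firefly luciferase luminescence from reporter carrying the Shn3 3'UTR in osteoblasts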
[6] = HepG2 cell cytotoxicity, dose response, cytotoxicity control for Shn3 inhibitor project, CellTiter-Glo, cherry-picked (AID 624134); format: functional, cell-based
[7] = control 3'UTR Renilla luciferase suppression, dose response, counter-screen for Shn3 inhibitor project, cell-based, Clone20-Shn3RL, cherry-picked (AID 624133); format: functional
[8] = target: Nuclear receptor subfamily 5 group A member 2 (Homo sapiens, UniProt O00482); format: functional, cell-based;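 also: HEK293T cells transfected with LRH-1 and a StAR promoter luciferase reporter; potency for inhibitors that lower LRH-1 driven reporter light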
Steroidogenic factor 1 = Steroidogenic factor 1 (Homo sapiens, UniProt Q13285); assay: Counterscreen for inverse agonists of the liver receptor homolog-1 (LRH-1; NR5A2): Luminescence-based cell-based high throughput dose response assay to identify inverse agonists of the Steroidogenic Factor 1 Nuclear Receptor (SF1; NR5A1).; format: functional
[9] = StAR promoter reporter inhibition counter-screen, dose response, counter-screen for LRH-1 inverse agonist project, cell-based, luminescence, luciferase reporter (AID 651969); format: functional
Mu-type opioid receptor = Mu-type opioid receptor (Homo sapiens, UniProt P35372); format: functional, cell-based;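 also: U2OS cells with beta-arrestin recruitment to OPRM1 by beta-gal complementation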
[10] = target: 5-hydroxytryptamine receptor 2A (Mus musculus, UniProt P35363); format: functional, cell-based;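 also: CHO-K1 cells with tagged receptor and beta-arrestin; agonist potency measured as compound-induced activation of the receptor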
[11] = MDA-MB-231 cell growth inhibition, dose response, cytotoxicity control for RAD54 inhibitor project, CellTiter-Glo luminescence, cherry-pick (AID 651692); format: functional, cell-based
[12] = target: T1, DNA repair and recombination protein RAD54-like (Homo sapiens, UniProt Q92698); assay: inhibitors of human RAD54 branch migration, confirmation, biochemical, fluorescence, cherry-picked samples, dose series (AID 651657); format: functional
T1 sequence (Q92698 whole entry): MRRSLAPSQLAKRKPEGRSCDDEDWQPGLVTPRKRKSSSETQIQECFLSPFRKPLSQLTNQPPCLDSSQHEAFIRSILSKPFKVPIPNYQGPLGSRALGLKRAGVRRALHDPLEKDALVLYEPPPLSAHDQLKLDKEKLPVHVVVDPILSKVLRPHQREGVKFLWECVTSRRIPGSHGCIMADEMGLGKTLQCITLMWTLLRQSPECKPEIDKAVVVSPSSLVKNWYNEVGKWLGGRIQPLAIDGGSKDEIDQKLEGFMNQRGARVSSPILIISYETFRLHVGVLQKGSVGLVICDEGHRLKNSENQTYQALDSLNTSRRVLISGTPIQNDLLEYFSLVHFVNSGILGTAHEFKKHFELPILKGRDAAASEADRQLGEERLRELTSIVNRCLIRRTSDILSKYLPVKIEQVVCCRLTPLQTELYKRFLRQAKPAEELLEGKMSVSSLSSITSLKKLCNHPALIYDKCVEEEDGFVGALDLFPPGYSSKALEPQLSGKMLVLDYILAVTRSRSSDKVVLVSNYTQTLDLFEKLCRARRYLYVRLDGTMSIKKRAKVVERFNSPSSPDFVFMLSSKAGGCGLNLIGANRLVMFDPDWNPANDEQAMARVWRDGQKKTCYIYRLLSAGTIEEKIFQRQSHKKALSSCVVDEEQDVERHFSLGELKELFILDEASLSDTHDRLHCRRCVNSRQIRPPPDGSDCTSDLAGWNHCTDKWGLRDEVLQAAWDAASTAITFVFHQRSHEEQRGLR

[13] = test system: Streptococcus sp. 'group A'; assay: growth inhibition of control SK(-) GAS strain, dose response, counter-screen for streptokinase expression inhibitor project, luminescence, kanamycin, BacTiterGlo, confirmation (AID 1900); format: functional, organism-based
Streptokinase A = target: T2, Streptokinase A (Streptococcus pyogenes serotype M1, UniProt P10520); assay: S. pyogenes streptokinase expression inhibitors, potency, dose response, plasminogen activation absorbance, OD405 (AID 1914); format: functional, Streptococcus pyogenes M1 GAS;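 also: secreted streptokinase activity via plasminogen activation per viability signal from cell pellet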
T2 sequence (P10520 whole entry): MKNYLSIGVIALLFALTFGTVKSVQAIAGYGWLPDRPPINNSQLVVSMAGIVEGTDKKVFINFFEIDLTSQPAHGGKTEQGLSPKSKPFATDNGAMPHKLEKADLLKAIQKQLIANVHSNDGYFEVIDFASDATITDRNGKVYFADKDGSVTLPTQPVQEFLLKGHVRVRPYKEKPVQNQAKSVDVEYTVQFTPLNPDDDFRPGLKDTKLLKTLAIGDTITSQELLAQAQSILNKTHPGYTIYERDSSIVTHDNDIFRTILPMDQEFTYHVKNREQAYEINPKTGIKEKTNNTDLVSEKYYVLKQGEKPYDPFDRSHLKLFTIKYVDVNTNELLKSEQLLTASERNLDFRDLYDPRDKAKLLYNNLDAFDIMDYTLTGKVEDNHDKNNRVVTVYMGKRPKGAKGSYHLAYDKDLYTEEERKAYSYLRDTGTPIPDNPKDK

[14] = inhibitors of intracellular T. cruzi replication, confirmation, NIH3T3 host cells, beta-gal luminescence (AID 2044); format: functional, cell-based;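 also: intracellular parasites grown in NIH/3T3 mouse fibroblasts as host cells; luminescent beta-galactosidase reporter signal from transgenic T. cruzi replicating inside host cells; inhibitors lower the luminescence signal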
[15] = cytotoxicity toward NIH3T3 fibroblasts, dose response, counter-screen, cell-based, ATP luminescence, mouse fibroblasts (AID 2010); format: functional;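 also: cells exposed to compound for about 90 hours before reading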
Streptococcus = assay: Group A Streptococcus viability loss, dose response, counter-screen for streptokinase expression inhibitor project, luminescence, BacTiterGlo (AID 1915); format: functional, organism-based;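 also: potency for reduction of bacterial viability or growth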
[16] = Luminescence Cell-Based Dose Retest to Confirm Inhibitors of Cancer Stem Cells. [Related pubchem assays (depositor defined):AID2717, AID2721]; format: functional; settings: Homo sapiens
[17] = target: T3, Heat shock factor protein 1 (Mus musculus, UniProt P38532); assay: HSF1 potentiators in luciferase reporter cells, confirmation, cell-based, NIH3T3, luminescence, dose retest (AID 435004); format: functional;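 also: stress induced by proteasome inhibitor MG132 added 30 min after compound; luciferase reporter driven by HSF1 response element in NIH3T3 cells; actives raise luminescence as potentiators of the MG132 stress response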
T3 sequence (P38532 whole entry): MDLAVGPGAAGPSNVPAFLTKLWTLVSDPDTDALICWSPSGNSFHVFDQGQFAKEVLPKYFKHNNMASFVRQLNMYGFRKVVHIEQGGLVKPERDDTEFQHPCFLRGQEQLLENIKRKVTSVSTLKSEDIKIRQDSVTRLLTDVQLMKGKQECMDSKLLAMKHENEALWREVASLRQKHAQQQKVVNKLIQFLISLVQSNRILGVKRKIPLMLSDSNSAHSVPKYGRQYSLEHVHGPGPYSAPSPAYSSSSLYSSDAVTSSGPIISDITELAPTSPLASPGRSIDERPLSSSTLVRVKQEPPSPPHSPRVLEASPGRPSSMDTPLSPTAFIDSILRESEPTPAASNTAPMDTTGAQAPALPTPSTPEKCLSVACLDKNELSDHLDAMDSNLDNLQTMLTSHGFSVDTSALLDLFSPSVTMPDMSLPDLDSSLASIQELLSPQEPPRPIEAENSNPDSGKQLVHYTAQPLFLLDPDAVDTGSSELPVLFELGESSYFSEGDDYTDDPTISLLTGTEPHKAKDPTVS

[18] = target: T4, Replicative DNA helicase DnaB (Mycobacterium tuberculosis, UniProt P9WMR3); assay: DnaB intein splicing inhibitors, dose response, biochemical, cell-free fluorescence (AID 449749); format: functional
T4 sequence (P9WMR3 whole entry): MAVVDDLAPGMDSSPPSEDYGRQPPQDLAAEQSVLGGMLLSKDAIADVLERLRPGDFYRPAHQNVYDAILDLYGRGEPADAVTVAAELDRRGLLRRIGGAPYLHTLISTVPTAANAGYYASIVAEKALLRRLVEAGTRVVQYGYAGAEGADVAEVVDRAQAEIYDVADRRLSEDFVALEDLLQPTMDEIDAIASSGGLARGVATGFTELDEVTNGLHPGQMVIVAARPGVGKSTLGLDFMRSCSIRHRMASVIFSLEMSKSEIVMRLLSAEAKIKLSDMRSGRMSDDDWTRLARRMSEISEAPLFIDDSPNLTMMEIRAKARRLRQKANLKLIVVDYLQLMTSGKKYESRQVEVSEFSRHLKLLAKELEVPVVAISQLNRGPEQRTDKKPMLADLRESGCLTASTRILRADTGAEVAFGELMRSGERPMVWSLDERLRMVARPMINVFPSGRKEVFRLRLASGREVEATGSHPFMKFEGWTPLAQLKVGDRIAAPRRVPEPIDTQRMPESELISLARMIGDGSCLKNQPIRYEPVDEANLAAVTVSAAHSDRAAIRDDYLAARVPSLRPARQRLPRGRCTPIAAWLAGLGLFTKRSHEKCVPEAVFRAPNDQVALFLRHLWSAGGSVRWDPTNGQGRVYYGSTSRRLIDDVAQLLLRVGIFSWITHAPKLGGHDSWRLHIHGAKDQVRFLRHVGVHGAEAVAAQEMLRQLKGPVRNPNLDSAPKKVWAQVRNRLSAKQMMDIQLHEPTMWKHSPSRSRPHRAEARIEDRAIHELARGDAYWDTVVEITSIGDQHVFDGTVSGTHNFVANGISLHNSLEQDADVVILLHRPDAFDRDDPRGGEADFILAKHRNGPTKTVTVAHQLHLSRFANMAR

Protein RecA = target: T5, Protein RecA (Mycobacterium tuberculosis, UniProt P9WHJ3); assay: Fluorescence Cell-Free Homogeneous Dose Retest to Identify Inhibitors of RecA-Intein Splicing Activity. [Related pubchem assays (depositor defined):AID2097, AID2223, AID489010, AID492950]; format: functional
T5 sequence (P9WHJ3 whole entry): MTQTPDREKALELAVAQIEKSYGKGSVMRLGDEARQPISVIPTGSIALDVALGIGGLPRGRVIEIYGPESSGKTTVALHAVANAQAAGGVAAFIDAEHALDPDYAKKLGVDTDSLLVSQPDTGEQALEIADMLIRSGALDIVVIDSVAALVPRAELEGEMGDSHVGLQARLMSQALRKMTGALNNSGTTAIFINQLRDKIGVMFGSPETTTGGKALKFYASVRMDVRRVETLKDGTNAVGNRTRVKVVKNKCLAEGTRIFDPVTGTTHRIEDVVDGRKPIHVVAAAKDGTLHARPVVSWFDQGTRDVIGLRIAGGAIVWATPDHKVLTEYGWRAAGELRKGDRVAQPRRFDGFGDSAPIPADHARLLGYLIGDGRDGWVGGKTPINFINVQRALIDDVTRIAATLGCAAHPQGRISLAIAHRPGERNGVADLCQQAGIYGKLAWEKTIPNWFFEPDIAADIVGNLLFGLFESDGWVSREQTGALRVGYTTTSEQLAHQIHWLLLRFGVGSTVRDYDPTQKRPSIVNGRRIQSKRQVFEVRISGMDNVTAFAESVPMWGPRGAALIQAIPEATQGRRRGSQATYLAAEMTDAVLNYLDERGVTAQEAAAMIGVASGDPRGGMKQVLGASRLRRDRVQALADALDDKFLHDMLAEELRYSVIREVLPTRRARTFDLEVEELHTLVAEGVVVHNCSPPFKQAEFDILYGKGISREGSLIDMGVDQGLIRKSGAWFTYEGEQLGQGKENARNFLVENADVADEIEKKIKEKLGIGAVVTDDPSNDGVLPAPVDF

Melanocortin receptor 4 = Melanocortin receptor 4 (Homo sapiens, UniProt P32245); format: functional, cell-based;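 also: Cell-based assay with luminescence read-out, confirmatory dose-response testing for agonist activity of biased ligands at MC4R; human U2OS cells with tagged receptor and beta-arrestin; potency of agonists that increase receptor coupling to beta-arrestin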
[19] = target: Heat shock protein HSP 90-alpha (Homo sapiens, UniProt P07900); format: functional, organism-based

Adenosylmethionine-8-amino-7-oxononanoate aminotransferase, sequence (P9WQ81 whole entry): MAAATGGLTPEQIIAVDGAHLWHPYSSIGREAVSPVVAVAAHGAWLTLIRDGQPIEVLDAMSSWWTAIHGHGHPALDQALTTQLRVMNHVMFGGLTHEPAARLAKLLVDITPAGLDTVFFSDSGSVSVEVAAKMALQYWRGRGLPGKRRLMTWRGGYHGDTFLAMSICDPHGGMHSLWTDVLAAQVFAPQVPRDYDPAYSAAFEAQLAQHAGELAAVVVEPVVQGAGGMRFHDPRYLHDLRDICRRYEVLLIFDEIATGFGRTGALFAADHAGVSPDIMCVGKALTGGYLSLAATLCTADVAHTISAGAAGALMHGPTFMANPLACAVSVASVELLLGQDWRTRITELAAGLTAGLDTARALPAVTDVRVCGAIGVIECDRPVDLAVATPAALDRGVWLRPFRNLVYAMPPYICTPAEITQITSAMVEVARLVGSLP
5-hydroxytryptamine receptor 2A, sequence (P35363 whole entry): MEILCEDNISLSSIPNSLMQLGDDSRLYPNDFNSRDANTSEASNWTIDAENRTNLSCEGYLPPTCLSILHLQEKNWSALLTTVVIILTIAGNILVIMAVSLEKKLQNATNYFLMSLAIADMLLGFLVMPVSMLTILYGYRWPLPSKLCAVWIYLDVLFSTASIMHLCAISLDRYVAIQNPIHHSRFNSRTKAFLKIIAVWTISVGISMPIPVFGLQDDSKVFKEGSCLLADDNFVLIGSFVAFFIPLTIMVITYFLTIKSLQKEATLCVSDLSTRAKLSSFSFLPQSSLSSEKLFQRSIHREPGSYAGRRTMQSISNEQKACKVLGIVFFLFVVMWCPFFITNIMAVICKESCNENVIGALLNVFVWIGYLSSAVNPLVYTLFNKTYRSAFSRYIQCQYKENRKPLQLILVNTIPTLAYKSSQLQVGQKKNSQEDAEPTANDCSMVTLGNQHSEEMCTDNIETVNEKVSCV
Steroidogenic factor 1, sequence (Q13285 whole entry): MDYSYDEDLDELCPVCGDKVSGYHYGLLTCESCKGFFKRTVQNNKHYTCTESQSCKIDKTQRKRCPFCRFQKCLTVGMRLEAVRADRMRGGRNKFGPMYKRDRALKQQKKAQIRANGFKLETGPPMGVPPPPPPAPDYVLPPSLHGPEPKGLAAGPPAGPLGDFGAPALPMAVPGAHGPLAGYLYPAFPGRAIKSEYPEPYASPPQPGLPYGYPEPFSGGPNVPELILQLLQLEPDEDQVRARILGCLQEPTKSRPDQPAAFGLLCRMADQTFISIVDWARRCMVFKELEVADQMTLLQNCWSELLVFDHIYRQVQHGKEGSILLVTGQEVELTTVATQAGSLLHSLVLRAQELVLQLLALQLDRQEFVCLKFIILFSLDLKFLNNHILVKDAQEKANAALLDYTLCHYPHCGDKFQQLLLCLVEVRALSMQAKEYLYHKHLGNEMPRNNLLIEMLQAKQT
Nuclear receptor subfamily 5 group A member 2, sequence (O00482 whole entry): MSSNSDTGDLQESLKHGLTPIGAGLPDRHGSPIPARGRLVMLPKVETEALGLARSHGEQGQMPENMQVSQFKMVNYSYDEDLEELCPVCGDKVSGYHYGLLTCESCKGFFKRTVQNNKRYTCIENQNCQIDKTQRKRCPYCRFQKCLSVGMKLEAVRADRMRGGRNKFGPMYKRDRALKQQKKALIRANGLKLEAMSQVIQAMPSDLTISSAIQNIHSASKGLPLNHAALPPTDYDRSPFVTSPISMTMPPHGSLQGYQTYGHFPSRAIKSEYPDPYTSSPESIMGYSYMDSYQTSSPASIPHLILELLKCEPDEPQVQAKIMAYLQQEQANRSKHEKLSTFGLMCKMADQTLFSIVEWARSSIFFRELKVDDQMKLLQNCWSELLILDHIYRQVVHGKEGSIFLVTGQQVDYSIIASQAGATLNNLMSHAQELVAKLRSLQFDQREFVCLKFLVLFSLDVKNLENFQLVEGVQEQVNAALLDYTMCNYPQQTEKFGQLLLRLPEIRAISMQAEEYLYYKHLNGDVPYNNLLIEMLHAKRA
Mu-type opioid receptor, sequence (P35372 whole entry): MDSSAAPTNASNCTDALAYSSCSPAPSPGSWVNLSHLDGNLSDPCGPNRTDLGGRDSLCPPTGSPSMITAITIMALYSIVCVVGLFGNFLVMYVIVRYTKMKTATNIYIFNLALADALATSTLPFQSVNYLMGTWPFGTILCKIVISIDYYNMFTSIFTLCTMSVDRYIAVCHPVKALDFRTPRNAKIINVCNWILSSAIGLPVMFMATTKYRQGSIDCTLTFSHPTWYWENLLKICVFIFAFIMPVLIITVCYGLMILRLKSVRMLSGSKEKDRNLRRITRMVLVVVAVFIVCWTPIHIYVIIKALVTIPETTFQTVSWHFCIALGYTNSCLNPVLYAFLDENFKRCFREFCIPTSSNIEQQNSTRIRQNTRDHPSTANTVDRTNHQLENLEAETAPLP
Melanocortin receptor 4, sequence (P32245 whole entry): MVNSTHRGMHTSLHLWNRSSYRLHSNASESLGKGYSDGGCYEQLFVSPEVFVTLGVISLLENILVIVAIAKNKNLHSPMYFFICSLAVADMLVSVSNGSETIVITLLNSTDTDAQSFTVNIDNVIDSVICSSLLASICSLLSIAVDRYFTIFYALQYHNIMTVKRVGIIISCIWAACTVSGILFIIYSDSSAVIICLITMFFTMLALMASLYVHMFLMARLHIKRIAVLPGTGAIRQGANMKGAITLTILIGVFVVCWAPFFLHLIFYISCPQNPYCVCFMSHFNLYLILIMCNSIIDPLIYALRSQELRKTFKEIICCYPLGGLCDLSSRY

COC(=O)[C@@H]1[C@@H](CO)[C@@H]2Cn3c(ccc(-c4ccccc4)c3=O)[C@@H]2N1Cc1cccc(F)c1
AC50 [1]: 4.33 µM (active)

CO[C@H]1CN(C)C(=O)c2ccc(NC(=O)C3CC3)cc2OC[C@H](C)N(C(=O)c2ccccn2)C[C@H]1C
AbsAC35 [2]: 207.94 µM

O=C(Nc1ccc(Cc2ccncc2)cc1)c1ccc([N+](=O)[O-])o1
CC50 [3]: 5.59 µM (active)
CC50 [4]: 4.99 µM (active)
IC50 (cells): 1.3 µM (active)
AC50 (INS1): 7.72 µM (active)
AC50 [5]: 2.71 µM (active)
AC50 [6]: 25.4 µM (active)
AC50 [7]: 13.9 µM (active)
IC50 [8]: 35.9 µM (inactive)
IC50 (Steroidogenic factor 1): 0.831 µM (active)
IC50 [9]: 35.9 µM (inactive)

O=C(NCC(c1ccco1)N1CCN(c2ccccc2F)CC1)C1CCCCC1 (configuration not stated)
EC50 (Mu-type opioid receptor): 92.5 µM (inactive)
EC50 [10]: 76.1 µM (inactive)

O=C(OCC(=O)N1CCN(C(=O)COC(=O)c2ccc(O)cc2O)CC1)c1ccc(O)cc1O
IC50 [8]: 3.12 µM (active)
IC50 (Steroidogenic factor 1): 3.09 µM (active)
IC50 [9]: 35.9 µM (inactive)

CCOC(=O)c1c(C)n(-c2ccc(OC)cc2)c2ccc(O)c(CN(C)C)c12
AC50 [11]: 34.4 µM (active)
AC50 [12]: 52.6 µM (active)

O=C1C2=C(N=C(S)NC2c2ccc(Cl)cc2)NC(c2ccc(Cl)cc2)N1c1ccc(Cl)cc1 (configuration not stated)
EC50 [13]: 1.89 µM (active)
EC50 (Streptokinase A): > 150 µM (not active)
EC50 [14]: 3.44 µM (active)
EC50 [15]: > 60 µM (not active)
EC50 (Streptococcus): 2.61 µM (active)
AC50 [16]: 4.68 µM (active)
EC50 [17]: > 260 µM (inactive)
AC50 [18]: 5.92 µM (active)
EC50 (Protein RecA): 13.1 µM (active)
EC50 (Melanocortin receptor 4): 9.63 µM (active)

COc1cccc(-c2nc(NC3CCCC3)c3ccccc3n2)c1O
EC50 [13]: 5.91 µM (active)
EC50 (Streptokinase A): 78.1 µM (inconclusive)
EC50 (Streptococcus): > 150 µM (not active)
AC50 [19]: 3.8 µM (active)
AC50 [5]: 25 µM (active)
EC50 (Mu-type opioid receptor): 92.4 µM (inactive)
EC50 [10]: 7.62 µM (active)

CCC(=O)N1CC[C@@H]2[C@H]1c1cc(-c3cccc(F)c3)ccc1N(C)[C@@H]2CO
AC50 [1]: 2.44 µM (active)
